Measured values reported in patent US20100249043A1, “COMPOSITIONS AND METHODS FOR PROMOTING HAIR GROWTH” (LA CANADA VENTRURES, INC., priority 2009, published 2010).

System: scalp hair
Experiment: scalp hair conditioner / scalp serum applied to dry scalp, monthly follow up with photographs
Type: in vivo
Conditions: applied to dry scalp after cleansing
From the text: The subjects were asked to apply the scalp serum with various concentrations of prostaglandin (dechloroethylcloprostenolamide from 0 wt % to 0.03 wt %), and a placebo is applied on the separate portion of the scalp. […] All the agents are applied directly to dry scalp after cleansing. Follow up are done monthly and photographs are taken.

“dechloroethylcloprostenolamide [prostaglandin]” was tested, and the “time to response on scalp” value was 3 month.
